Measurements taken from the supplement of paper PMC10307832.

Assays:
Test in all cases: relative viability (nuclei count vs DMSO), 5 days (fraction); higher = more cells survive
[1] = compound: COc1cc(-c2nn([C@H]3CC[C@H](N4CCN(C(C)=O)CC4)CC3)c3ncnc(N)c23)ccc1NC(=O)c1cc2ccccc2n1C + O=C(c1cc(Cc2n[nH]c(=O)c3ccccc23)ccc1F)N1CCN(C(=O)C2CC2)CC1 [Olaparib] (partner 8 µM)
Procedure, shortened: (§1)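 For relative viability, nuclei counts in treated wells were divided by those in vehicle wells. Lung cancer cell lines had been pin-tool dosed in 1536-well plates the day after seeding and cultured for 5 days, then fixed and stained in one step (final 0.05% Triton X-100, 1% formaldehyde, 1 ug/ml Hoechst) and imaged at 4×. Doses were one drug alone or a fixed anchor-drug dose plus five library-drug doses (not always all listed) in √10 steps, and values are duplicate-plate medians.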

[2] = compound: CO[C@@H]1[C@H](N(C)C(=O)c2ccccc2)C[C@H]2O[C@]1(C)n1c3ccccc3c3c4c(c5c6ccccc6n2c5c31)C(=O)NC4 [Midostaurin] + Nc1nc2[nH]cc(CCc3ccc(C(=O)N[C@@H](CCC(=O)O)C(=O)O)cc3)c2c(=O)[nH]1 [Pemetrexed] (partner 0.2 µM)
Procedure, shortened: as §1

[3] = compound: COc1cc(-c2nn([C@H]3CC[C@H](N4CCN(C(C)=O)CC4)CC3)c3ncnc(N)c23)ccc1NC(=O)c1cc2ccccc2n1C + Cc1cc(Nc2cc(N3CCN(C)CC3)nc(Sc3ccc(NC(=O)C4CC4)cc3)n2)n[nH]1 [Tozasertib] (partner 0.1 µM)
Procedure, shortened: as §1

[4] = compound: COc1cc(-c2nn([C@H]3CC[C@H](N4CCN(C(C)=O)CC4)CC3)c3ncnc(N)c23)ccc1NC(=O)c1cc2ccccc2n1C + CCNC(=O)c1noc(-c2cc(C(C)C)c(O)cc2O)c1-c1ccc(CN2CCOCC2)cc1 [Luminespib] (partner 0.01 µM)
Procedure, shortened: as §1

[5] = compound: COc1cc(-c2nn([C@H]3CC[C@H](N4CCN(C(C)=O)CC4)CC3)c3ncnc(N)c23)ccc1NC(=O)c1cc2ccccc2n1C + COc1cc2c(Oc3ccc(NC(=O)C4(C(=O)Nc5ccc(F)cc5)CC4)cc3F)ccnc2cc1OCCCN1CCOCC1 [Foretinib] (partner 0.25 µM)
Procedure, shortened: as §1

Cell Line | relative viability ([1]; first compound 0.0128 µM) | relative viability ([1]; first compound 0.04048 µM) | relative viability ([1]; first compound 0.128 µM) | relative viability ([1]; first compound 1.28 µM) | relative viability ([2]; first compound 0.01 µM) | relative viability ([2]; first compound 0.03162 µM) | relative viability ([2]; first compound 0.1 µM) | relative viability ([2]; first compound 0.3162 µM) | relative viability ([3]; first compound 0.0128 µM) | relative viability ([3]; first compound 0.04048 µM) | relative viability ([3]; first compound 0.128 µM) | relative viability ([3]; first compound 1.28 µM) | relative viability ([4]; first compound 0.0128 µM) | relative viability ([4]; first compound 0.04048 µM) | relative viability ([4]; first compound 0.128 µM) | relative viability ([4]; first compound 1.28 µM) | relative viability ([5]; first compound 0.0128 µM) | relative viability ([5]; first compound 0.04048 µM) | relative viability ([5]; first compound 0.128 µM) | relative viability ([5]; first compound 1.28 µM)
LOU-NH91 | 0.924 | 1.01 | 0.902 | 0.831 | 0.317 | 0.399 | 0.37 | 0.397 | 0.664 | 0.598 | 0.699 | 0.671 | 0.413 | 0.28 | 0.352 | 0.321 | 0.991 | 0.99 | 0.968 | 0.922
NCI-H3122 | 0.683 |  | 0.64 | 0.621 | 0.201 | 0.185 | 0.201 | 0.19 | 0.396 | 0.342 | 0.343 | 0.454 | 0.0938 |  | 0.0759 | 0.069 | 1.02 |  | 0.877 | 0.777
HCC-827 | 0.657 | 0.572 | 0.574 | 0.48 | 0.249 | 0.251 | 0.241 | 0.255 | 0.417 | 0.416 | 0.392 | 0.374 | 0.633 | 0.66 | 0.816 | 0.203 | 0.998 | 0.943 | 1.02 | 0.756
SK-LU-1 | 0.411 | 0.6 | 0.431 | 0.402 | 0.99 | 0.92 | 0.836 | 0.794 | 0.346 | 0.352 | 0.273 | 0.226 | 0.213 | 0.187 | 0.203 | 0.141 | 0.769 | 0.798 | 0.691 | 0.376
NCI-H1975 | 0.819 | 0.978 | 0.794 | 0.494 | 0.298 | 0.31 | 0.271 | 0.279 | 0.868 | 0.896 | 0.528 | 0.159 | 0.249 | 0.186 | 0.159 | 0.123 | 0.887 | 0.912 | 0.918 | 0.481
NCI-H1651 | 0.19 | 0.177 | 0.205 | 0.165 | 0.626 | 0.53 | 0.618 | 0.675 | 0.616 | 0.769 | 0.635 | 0.37 | 0.797 | 0.859 | 0.942 | 0.743 | 0.911 | 0.886 | 0.969 | 0.692
NCI-H441 | 0.554 | 0.51 | 0.622 | 0.624 | 0.304 | 0.259 | 0.222 | 0.254 | 0.743 | 0.734 | 0.565 | 0.578 | 0.337 | 0.347 | 0.31 | 0.244 | 1.09 | 1.29 | 0.998 | 0.89
LCLC-103H | 0.851 | 0.79 | 0.615 | 0.773 | 0.464 | 0.53 | 0.452 | 0.467 | 0.438 | 0.453 | 0.431 | 0.423 | 0.985 | 1.18 | 0.879 | 0.835 | 0.774 | 0.972 | 0.616 | 0.65
LCLC-97TM1 | 0.455 | 0.501 | 0.326 | 0.441 | 0.164 | 0.137 | 0.193 | 0.166 | 0.275 | 0.252 | 0.201 | 0.253 | 0.838 | 0.545 | 0.757 | 0.404 | 1.06 | 0.692 | 0.864 | 0.887
NCI-H1355 | 0.798 | 0.831 | 0.756 | 0.684 | 1.04 | 1.07 | 1.14 | 1.09 | 0.541 | 0.551 | 0.497 | 0.28 | 0.798 | 0.7 | 0.726 | 0.639 | 1 | 0.958 | 0.988 | 0.883
HOP-62 | 0.657 | 0.533 | 0.366 | 0.478 | 0.332 | 0.278 | 0.326 | 0.41 | 0.382 | 0.41 | 0.346 | 0.368 | 0.972 | 0.823 | 1 | 0.879 | 1.16 | 1.12 | 1.07 | 1.03
NCI-H2085 | 0.817 | 0.891 | 0.804 | 0.653 | 0.971 | 0.784 | 0.928 | 0.632 | 0.827 | 0.867 | 0.728 | 0.372 | 0.416 | 0.524 | 0.445 | 0.43 | 1.12 | 0.876 | 0.834 | 0.691
SW 900 | 1 | 1.17 | 0.845 | 0.574 | 0.468 | 0.477 | 0.488 | 0.478 | 0.665 | 0.539 | 0.402 | 0.343 | 0.178 | 0.175 | 0.184 | 0.159 | 0.813 | 0.91 | 0.843 | 0.66
